{
  "source": "patent US10543221B2",
  "about": "“Beta-lactamase inhibitors, formulations, and uses thereof” (priority 2016, dated 2020)",
  "key": {"[1]": {"tested_on": "BL21(DE3) E. coli expressing KPC-2", "assay": "MIC study, synergy with imipenem, broth microdilution, E. coli", "assay_type": "cell-based", "details": "imipenem alone; E. coli BL21(DE3) pET-GST-blaKPC-2; 37 C, 24 hours", "procedure": "(§1) MIC Studies. Compounds were tested for synergy with the carbapenem antibiotic, imipenem, against BL21(DE3) E. coli expressing KPC-2. MIC values were determined with the Mueller-Hinton broth microdilution method. To test for inhibitory activity, compounds were dissolved in DMSO and dilutions were carried out using LB broth. Compounds were test at 100 µM with increasing concentrations of imipenem. […] After inoculation, the plates are incubated at 37 C for 24 hours. The MIC of the compounds were then determined visually. […] For Table 3, 16 μg/mL of compounds were tested for synergy with the carbapenem antibiotic, imipenem, against a K. pneumoniae strain expressing KPC-2."}, "[2]": {"tested_on": "K. pneumoniae strain expressing KPC-2", "assay_type": "cell-based", "details": "single agent; K. pneumoniae ATCC 4683, phenotype KPC-2", "procedure": "as §1"}, "[3]": {"target": "VIM-2 (Escherichia coli, UniProt Q5U7L7)", "assay": "Steady-state kinetic analysis, VIM-2", "assay_type": "biochemical"}, "[4]": {"target": "NDM-1 metallo-beta-lactamase (Klebsiella pneumoniae, UniProt C7C422)", "sequence (C7C422 whole entry, looked up)": "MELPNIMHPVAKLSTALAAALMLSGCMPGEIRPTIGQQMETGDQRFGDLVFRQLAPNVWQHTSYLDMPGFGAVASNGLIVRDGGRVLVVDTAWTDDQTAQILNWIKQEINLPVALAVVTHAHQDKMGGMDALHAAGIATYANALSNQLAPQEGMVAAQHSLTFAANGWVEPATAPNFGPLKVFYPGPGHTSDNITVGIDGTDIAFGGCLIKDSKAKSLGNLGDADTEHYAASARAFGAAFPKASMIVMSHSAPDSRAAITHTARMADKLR", "assay": "Steady-state kinetic analysis, nitrocefin hydrolysis, NDM-1", "assay_type": "biochemical", "details": "second NDM-1 column of Table 1"}, "[5]": {"target": "His-tag SHV-2 (Escherichia coli, UniProt P0A9Z7)", "sequence (P0A9Z7 22-286 limits assumed)": "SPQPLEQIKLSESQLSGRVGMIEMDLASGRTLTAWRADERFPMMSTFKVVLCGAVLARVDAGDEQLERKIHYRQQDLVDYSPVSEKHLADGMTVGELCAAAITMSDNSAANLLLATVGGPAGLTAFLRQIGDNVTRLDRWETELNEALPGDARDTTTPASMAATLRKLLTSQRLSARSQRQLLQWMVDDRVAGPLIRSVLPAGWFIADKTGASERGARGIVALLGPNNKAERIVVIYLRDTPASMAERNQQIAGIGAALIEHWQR", "procedure": "Steady-State Kinetic Analysis. Steady-state kinetic parameters were determined by using a Biotek Cytation Multi-Mode Reader. For KPC-2, each assay was performed in 100 mM Tris-HCl pH 7.0, 0.01% Triton X-100 at 37 C. Vmax and Km were determined from initial steady-state velocities from nitrocefin read at a wavelength of 486 nm. The kinetic parameters were obtained using the non-linear portion of the data to the Henri-Michaelis (equation 1) using SigmaPlot 12.5. […] Compounds according to Formulas 5-10 were purchased from commercial sources. The last compound was de novo synthesized."}, "[6]": {"target": "KPC-2 beta-lactamase (Klebsiella pneumoniae, UniProt Q9F663)", "sequence (Q9F663 whole entry, looked up)": "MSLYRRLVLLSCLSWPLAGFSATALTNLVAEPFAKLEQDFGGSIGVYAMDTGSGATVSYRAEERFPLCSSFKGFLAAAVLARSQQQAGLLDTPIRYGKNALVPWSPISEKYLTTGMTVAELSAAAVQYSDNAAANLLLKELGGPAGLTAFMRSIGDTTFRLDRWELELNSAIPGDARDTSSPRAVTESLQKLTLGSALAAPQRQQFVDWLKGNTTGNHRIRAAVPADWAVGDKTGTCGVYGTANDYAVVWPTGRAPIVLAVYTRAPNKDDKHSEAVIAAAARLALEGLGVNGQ", "assay": "Steady-state kinetic analysis, nitrocefin hydrolysis, KPC-2", "assay_type": "biochemical", "details": "nitrocefin substrate", "procedure": "Fractions were analyzed by SDS-PAGE.\nSteady-State Kinetic Analysis. Steady-state kinetic parameters were determined by using a Biotek Cytation Multi-Mode Reader. For KPC-2, each assay was performed in 100 mM Tris-HCl pH 7.0, 0.01% Triton X-100 at 37 C. […] Compounds according to Formulas 5-10 were purchased from commercial sources. The last compound was de novo synthesized."}},
  "data": [
    {"smiles": "C[C@@H](O)[C@H]1C(=O)N2C(C(=O)O)=C(SCCN=CN)C[C@H]12", "note": "[Imipenem, imipenem, reference compound]", "values": [
      {"measurement": "MIC", "setting": "[1]", "result": 4, "unit": "µg/mL"},
      {"measurement": "MIC", "setting": "[2]", "result": 8, "unit": "µg/mL"}
    ]},
    {"smiles": "Cc1cc(Br)c2c(CP(=O)(O)O)cc(=O)oc2c1", "note": "[Compound 994942]", "values": [
      {"measurement": "Ki", "setting": "[3]", "result": 1.8, "unit": "µM"},
      {"measurement": "Ki", "setting": "[4]", "result": 55, "unit": "µM"}
    ]},
    {"smiles": "Cc1cc2oc(=O)cc(CP(=O)(O)O)c2cc1C", "note": "[Compound 73043]", "values": [
      {"measurement": "MIC", "setting": "[2]", "result": ">32", "unit": "µg/mL"}
    ]},
    {"smiles": "O=c1cc(CP(=O)(O)O)c2ccccc2[nH]1", "note": "[Compound 994943]", "values": [
      {"measurement": "Ki", "setting": "[3]", "result": 9.12, "unit": "µM"}
    ]},
    {"smiles": "O=P(O)(O)Cc1cccc2cccnc12", "note": "[Compound 995016]", "values": [
      {"measurement": "Ki", "setting": "[3]", "result": 24.3, "unit": "µM"}
    ]},
    {"smiles": "O=P(O)(O)Cc1cccc2ccc[n+]([O-])c12", "note": "[Compound 995019]", "values": [
      {"measurement": "VIM-2 Ki", "setting": "[3]", "result": "precipitation"},
      {"measurement": "NDM-1 Ki", "setting": "[4]", "result": "precipitation"},
      {"measurement": "His-tag SHV-2 Ki", "setting": "[5]", "result": "precipitation"},
      {"measurement": "His-Tag KPC-2 Ki", "setting": "[6]", "result": "precipitation"}
    ]},
    {"smiles": "O=c1cc(CP(=O)(O)O)c2c(F)cc(F)cc2o1", "note": "[Compound 995015]", "values": [
      {"measurement": "Ki", "setting": "[3]", "result": 4.7, "unit": "µM"}
    ]},
    {"smiles": "Cn1c(=O)cc(CP(=O)(O)O)c2ccccc21", "note": "[Compound 995018]", "values": [
      {"measurement": "Ki", "setting": "[3]", "result": 15.6, "unit": "µM"}
    ]}
  ]
}
